# Experimental data published in patent publication EP4667464A1 (Cyrus Therapeutics Inc., priority 2023, dated 2024).
# Like-named read-outs stand apart in the source and are kept apart here.
# Tests used:
# [1] = system: lung cancer cell line NCI-H358 having the KRAS G12C variant; test: Cancer cell growth inhibition, 3D spheroids (CellTiter-Glo 3D); assay type: cell-based; settings: Homo sapiens, NCI-H358, 120 h; 3D spheroids, 0.002-10 µM, 5 days; read-out: H358 cell viability
# Protocol: Thereafter, the plate with the cells cultured was adapted to room temperature for 10 minutes, and then 50 µL of CellTiter-Glo® 3D Cell Viability Assay (PROMEGA, G9683) solution was dispensed, and reacted on a horizontal stirrer at a speed of 300 RPM for 30 minutes to induce the cell lysis. […] Thereafter, based on the measured values, the degree of cell growth in the well treated with each compound was calculated when the final cell density value of the well not treated with the test substance was set to 100%.
# KRAS G12C::SOS1 = biological target: T1, KRAS G12C::SOS1 (Homo sapiens, UniProt Q07889); test: KRAS G12C::SOS1 protein-protein interaction (PPI) inhibition assay (HTRF); assay type: binding
# T1 construct: purchased CISBIO 64KRASG12PEH
# T1 sequence (Q07889 1-1333): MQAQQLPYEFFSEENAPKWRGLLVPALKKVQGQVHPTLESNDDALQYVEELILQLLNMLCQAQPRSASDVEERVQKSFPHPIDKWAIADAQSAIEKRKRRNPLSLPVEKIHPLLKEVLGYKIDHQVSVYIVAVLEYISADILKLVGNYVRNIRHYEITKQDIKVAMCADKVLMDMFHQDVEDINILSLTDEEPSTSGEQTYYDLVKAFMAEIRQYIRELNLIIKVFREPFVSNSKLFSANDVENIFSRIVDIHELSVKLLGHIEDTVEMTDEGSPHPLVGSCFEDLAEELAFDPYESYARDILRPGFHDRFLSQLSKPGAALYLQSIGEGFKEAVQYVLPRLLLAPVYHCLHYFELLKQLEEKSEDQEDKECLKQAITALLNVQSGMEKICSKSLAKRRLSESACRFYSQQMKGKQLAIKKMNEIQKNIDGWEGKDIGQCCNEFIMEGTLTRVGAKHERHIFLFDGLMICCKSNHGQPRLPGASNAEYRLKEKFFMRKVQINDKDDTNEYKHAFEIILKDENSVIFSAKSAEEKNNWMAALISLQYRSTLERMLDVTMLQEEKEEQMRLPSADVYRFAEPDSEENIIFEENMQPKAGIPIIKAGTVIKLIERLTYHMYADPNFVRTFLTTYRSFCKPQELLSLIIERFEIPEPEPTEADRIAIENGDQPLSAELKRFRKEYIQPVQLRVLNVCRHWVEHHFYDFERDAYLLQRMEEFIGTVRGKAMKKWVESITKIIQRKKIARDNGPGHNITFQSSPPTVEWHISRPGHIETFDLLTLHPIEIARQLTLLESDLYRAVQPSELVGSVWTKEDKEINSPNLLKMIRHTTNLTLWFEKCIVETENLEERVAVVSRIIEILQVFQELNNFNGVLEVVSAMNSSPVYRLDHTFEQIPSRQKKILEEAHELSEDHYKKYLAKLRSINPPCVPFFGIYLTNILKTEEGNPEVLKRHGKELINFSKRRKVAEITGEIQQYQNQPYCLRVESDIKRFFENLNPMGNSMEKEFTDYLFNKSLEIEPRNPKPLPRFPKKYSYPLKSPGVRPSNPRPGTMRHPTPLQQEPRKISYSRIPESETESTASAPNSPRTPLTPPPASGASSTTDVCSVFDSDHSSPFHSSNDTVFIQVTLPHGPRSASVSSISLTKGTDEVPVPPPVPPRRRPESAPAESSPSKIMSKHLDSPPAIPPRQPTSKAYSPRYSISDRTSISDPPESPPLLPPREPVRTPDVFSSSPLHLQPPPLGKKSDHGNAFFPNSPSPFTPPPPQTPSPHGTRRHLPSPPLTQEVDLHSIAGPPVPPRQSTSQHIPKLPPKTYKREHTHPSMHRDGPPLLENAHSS
# Method in brief: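 Compounds, at eight 3-fold dilutions from 3 µM, were mixed with GTP-loaded Tag1-KRAS G12C, Tag2-SOS1 and a terbium-cryptate donor plus XL665 acceptor antibody pair. After 2 h at room temperature, time-resolved FRET reported the KRAS–SOS1 interaction.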
# SOS1 = biological target: T2, SOS1 (Homo sapiens, UniProt Q07889); test: SOS-catalyzed nucleotide exchange assay (HTRF, SOS1-mediated GTP loading of KRAS G12D); assay type: biochemical
# T2 construct: HIS-SOS1cat (160 nM; Cytoskeleton, US); His (N); purchased Cytoskeleton
# T2 sequence (Q07889 564-1049 limits assumed): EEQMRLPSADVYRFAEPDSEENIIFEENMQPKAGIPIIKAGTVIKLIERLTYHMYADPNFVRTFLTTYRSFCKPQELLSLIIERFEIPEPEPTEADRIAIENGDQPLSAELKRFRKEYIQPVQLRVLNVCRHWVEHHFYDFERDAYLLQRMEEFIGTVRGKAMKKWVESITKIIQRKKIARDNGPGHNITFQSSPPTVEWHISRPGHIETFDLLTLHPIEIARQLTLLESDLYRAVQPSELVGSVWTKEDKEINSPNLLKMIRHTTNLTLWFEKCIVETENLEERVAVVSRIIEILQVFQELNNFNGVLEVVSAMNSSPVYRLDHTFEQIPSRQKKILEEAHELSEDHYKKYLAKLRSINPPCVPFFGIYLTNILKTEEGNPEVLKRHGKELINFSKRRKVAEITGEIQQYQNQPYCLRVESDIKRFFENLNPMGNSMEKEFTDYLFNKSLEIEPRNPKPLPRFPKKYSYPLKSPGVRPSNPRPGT
# [2] = 8 concentrations from 3 µM, three replicates, read-out: KRAS G12C::SOS1 PPI
# [3] = GST-KRAS G12D, HIS-SOS1cat, compound 128 pM to 10 µM, read-out: SOS-catalyzed nucleotide exchange assay
smiles,measurement,setting,value
"[2H]C([2H])([2H])[C@@]([2H])(NC(=O)c1ccc(=O)n(-c2cncc(-c3cnnn3C)c2)n1)c1cccc(C(F)(F)F)c1F [Example 22, (R)-N-(1-(2-fluoro-3-(trifluoromethyl)phenyl)ethyl-1,2,2,2-tetradeuterio)-1-(5-(1-methyl-1H-1,2,3-triazol-5-yl)pyridin-3-yl)-6-oxo-1,6-dihydropyridazine-3-carboxamide]",IC50,[1],< 1000 nM
"C[C@@H](NC(=O)c1cc(C(C)(C)O)c(=O)n(-c2cncc(-c3cnnn3C)c2)n1)c1cccc(C(F)(F)F)c1F [Example 1-59, (R)-N-(1-(2-fluoro-3-(trifluoromethyl)phenyl)ethyl)-5-(2-hydroxypropane-2-yl)-1-(5-(1-methyl-1H-1,2,3-triazol-5-yl)pyridin-3-yl)-6-oxo-1,6-dihydropyridazine-3-carboxamide]",IC50,KRAS G12C::SOS1; [2],50 to 150 nM
same,IC50,SOS1; [3],< 50 nM
"Cc1cc(C(=O)N[C@H](C)c2cccc(C(F)(F)F)c2F)cn(-c2cncc(-c3cnnn3C)c2)c1=O [Example 1-21, (R)-N-(1-(2-fluoro-3-(trifluoromethyl)phenyl)ethyl)-3-methyl-5'-(1-methyl-1H-1,2,3-triazol-5-yl)-2-oxo-2H-[1,3'-bipyridine]-5-carboxamide]",IC50,KRAS G12C::SOS1; [2],< 50 nM
same,IC50,SOS1; [3],< 50 nM
"C[C@@H](NC(=O)c1ccc(=O)n(-c2cncc(-c3cnnn3[C@@H]3CCNC3)c2)n1)c1cccc(C(F)(F)F)c1F [Example 6-9, N-{(R)-1-[2-fluoro-3-(trifluoromethyl)phenyl]ethyl}-6-oxo-1-(5-(1-((R)-pyrrolidin-3-yl)-1H-1,2,3-triazol-5-yl)pyridin-3-yl)-1,6-dihydropyridazine-3-carboxamide]",IC50,KRAS G12C::SOS1; [2],< 50 nM
same,IC50,SOS1; [3],< 50 nM
C[C@@H](NC(=O)c1ccc(=O)n(-c2cncc(-c3cnnn3C3CNC3)c2)n1)c1cccc(C(F)(F)F)c1F [Example 19],IC50,KRAS G12C::SOS1; [2],< 50 nM
same,IC50,SOS1; [3],< 50 nM
"C[C@@H](NC(=O)c1cc(C2CCCCC2)c(=O)n(-c2cncc(-c3cnnn3C)c2)n1)c1cccc(C(F)(F)F)c1F [Example 1-65, N-{(R)-1-[2-fluoro-3-(trifluoromethyl)phenyl]ethyl}-5-cyclohexyl-1-[5-(1-methyl-1H-1,2,3-triazol-5-yl)-3-pyridyl]-6-oxo-1,6-dihydropyridazine-3-carboxamide]",IC50,KRAS G12C::SOS1; [2],50 to 150 nM
same,IC50,SOS1; [3],> 150 nM
"C[C@@H](NC(=O)c1ccc(=O)n(-c2cncc(-c3cnnn3C3CNC3)c2)n1)c1cccc(C(F)(F)CO)c1F [Example 20-2, (R)-1-(5-(1-(azetidin-3-yl)-1H-1,2,3-triazol-5-yl)pyridin-3-yl)-N-(1-(3-(1,1-difluoro-2-hydroxyethyl)-2-fluorophenyl)ethyl)-6-oxo-1,6-dihydropyridazine-3-carboxamide]",IC50,KRAS G12C::SOS1; [2],< 50 nM
same,IC50,SOS1; [3],< 50 nM
C[C@@H](NC(=O)c1ccc(=O)n(-c2cc(-c3cnnn3C3CC3)cnc2F)n1)c1cccc(C(F)(F)CO)c1F [Example 6-8],IC50,KRAS G12C::SOS1,< 50 nM
same,IC50,SOS1,< 50 nM
"[2H][C@](C)(NC(=O)c1ccc(=O)n(-c2cncc(-c3cnnn3C)c2)n1)c1cccc(C(F)(F)F)c1F [Example 1-34, N-[(1R)-1-deuterio-1-[2-fluoro-3-(trifluoromethyl)phenyl]ethyl]-1-[5-(3-methyltriazol-4-yl)-3-pyridyl]-6-oxo-pyridazine-3-carboxamide]",IC50,KRAS G12C::SOS1; [2],< 50 nM
same,IC50,SOS1; [3],50 to 150 nM
"[2H]C([2H])([2H])[C@@H](NC(=O)c1ccc(=O)n(-c2cncc(-c3cnnn3C)c2)n1)c1cccc(C(F)(F)F)c1F [Example 1-35, N-{(R)-1-[2-fluoro-3-(trifluoromethyl)phenyl]-ethyl-(2,2,2-trideuterio)}-1-[5-(1-methyl-1H-1,2,3-triazol-5-yl)-3-pyridyl]-6-oxo-pyridazine-3-carboxamide]",IC50,KRAS G12C::SOS1; [2],50 to 150 nM
same,IC50,SOS1; [3],50 to 150 nM
"C[C@@H](NC(=O)c1cc(Cl)c(=O)n(-c2cncc(-c3c(Cl)nnn3C)c2)n1)c1cccc(C(F)F)c1F [Example 12, N-{(R)-1-[3-(difluoromethyl)-2-fluorophenyl]ethyl}-5-chloro-1-[5-(4-chloro-1-methyl-1H-1,2,3-triazol-5-yl)-3-pyridyl]-6-oxo-1,6-dihydropyridazine-3-carboxamide]",IC50,KRAS G12C::SOS1; [2],> 150 nM
same,IC50,SOS1; [3],50 to 150 nM
"C[C@H](O)c1cc(C(=O)N[C@H](C)c2cccc(C(F)(F)F)c2F)nn(-c2cncc(-c3cnnn3C)c2)c1=O (single isomer, unassigned) [Example 10]",IC50,KRAS G12C::SOS1; [2],50 to 150 nM
same,IC50,SOS1; [3],50 to 150 nM
"C[C@@H](NC(=O)c1ccc(=O)n(-c2cncc(-c3cnnn3C3CCN(C)CC3)c2)n1)c1cccc(C(F)(F)F)c1F [Example 20-6, (R)-N-(1-(2-fluoro-3-(trifluoromethyl)phenyl)ethyl)-1-(5-(1-(1-methylpiperidin-4-yl)-1H-1,2,3-triazol-5-yl)pyridin-3-yl)-6-oxo-1,6-dihydropyridazine-3-carboxamide]",IC50,KRAS G12C::SOS1; [2],< 50 nM
same,IC50,SOS1; [3],< 50 nM
"Cc1cc(C(=O)N[C@H](C)c2cccc(C(F)(F)COS(=O)(=O)c3ccccn3)c2F)nn(-c2cncc(-c3cnnn3C)c2)c1=O [Example 8, N-[(R)-1-{3-[1,1-difluoro-2-(2-pyridylsulfonyloxy)ethyl]-2-fluorophenyl}ethyl]-5-methyl-1-[5-(1-methyl-1H-1,2,3-triazol-5-yl)-3-pyridyl]-6-oxo-1,6-dihydropyridazine-3-carboxamide]",IC50,KRAS G12C::SOS1; [2],< 50 nM
same,IC50,SOS1; [3],< 50 nM
"C[C@@H](NC(=O)c1ccc(=O)n(-c2cncc(-c3cnnn3C3CC3)c2)n1)c1cc(N)cc(C(F)(F)F)c1 [Example 1-56, 1-[5-(1-cyclopropyl-1H-1,2,3-triazol-5-yl)-3-pyridyl]-6-oxo-N-[(1R)-1-[3-amino-5-(trifluoromethyl)phenyl]ethyl]pyridazine-3-carboxamide]",IC50,KRAS G12C::SOS1; [2],< 50 nM
same,IC50,SOS1; [3],< 50 nM
"CCn1nccc1-c1cncc(-n2nc(C(=O)N[C@H](C)c3cccc(C(F)(F)CO)c3F)ccc2=O)c1 [Example 1-14, N-[(1R)-1-[3-(1,1-difluoro-2-hydroxy-ethyl)-2-fluoro-phenyl]ethyl]-1-[5-(2-ethylpyrazol-3-yl)-3-pyridyl]-6-oxo-pyridazine-3-carboxamide]",IC50,KRAS G12C::SOS1; [2],> 150 nM
same,IC50,SOS1; [3],> 150 nM
"C[C@@H](NC(=O)c1cc(C#N)c(=O)n(-c2cncc(-c3cnnn3C)c2)n1)c1cccc(C(F)(F)CO)c1F [Example 3, 5-cyano-N-[(1R)-1-[3-(1,1-difluoro-2-hydroxy-ethyl)-2-fluorophenyl]ethyl]-1-[5-(3-methyltriazol-4-yl)-3-pyridyl]-6-oxo-pyridazine-3-carboxamide]",IC50,KRAS G12C::SOS1,> 150 nM
same,IC50,SOS1,> 150 nM
